According to article PMC7817688, “Identification of 3-chymotrypsin like protease (3CLPro) inhibitors as potential anti-SARS-CoV-2 agents” (Communications Biology, 2021):
“And” between values parts separate entries of the source, which are not always exact repeats. Equal entries are not always repeated. Where two headings read alike, the source gives them in different places. Numbered stars: 1 amine (or outer) side, 2 acyl side, 3 side chain; on linkers, the order of the positions; unused ones are H or OH. Bridge positions count the residues as written; N and C are the ends. Square brackets hold non-standard residues; d marks the D form. Peptide text beside a SMILES is read from it. * marks the point of attachment. hTyr(3S-OH,4S-OH,3'-OSO3H) = N[C@H](C(=O)O)[C@H](O)[C@@H](O)c1ccc(O)c(OS(=O)(=O)O)c1; Orn(4R-OH,5R-OH) = O=C([C@H](C[C@@H](O)[C@@H](O)N[*:3])N[*:1])[*:2]; Pro(3S-OH,4S-Me) = C[C@H]1CN[C@H](C(=O)O)[C@H]1O; X1 = CCCCCOc1ccc(-c2cc(-c3ccc(C(=O)*)cc3)no2)cc1; Gln(3R-OH) = NC(=O)C[C@@H](O)[C@H](N)C(=O)O; Hyp = O=C(O)[C@@H]1C[C@@H](O)CN1

Target: SARS-CoV-2 3CLpro enzyme (Severe acute respiratory syndrome coronavirus 2, UniProt P0DTD1)
Test: biochemical
Conditions: for percent enzymatic activity, individual values / percent enzymatic activity, AVG: DMSO treated control = 100%, data of Figs. 2-4; for percent enzymatic activity, AVG: mean of 3 values; for inhibitory effect towards 3CLpro enzymatic activity (in words): in vitro enzymatic assay at the tested doses; for inhibition at 50 µM / inhibition at 100 µM: read-out: inhibition of 3CLpro enzymatic activity; for IC50: drugs 0 to 100 µM, 50 µM substrate, non-linear four variable fit
[1] = dose-dependent study, 0.048828 uM, individual values
[2] = dose-dependent study, 0.097656 uM, individual values
[3] = dose-dependent study, 0.097656 uM, individual values, read-out: % activity
[4] = dose-dependent study, 0.195313 uM, individual values
[5] = dose-dependent study, 0.195313 uM, individual values, read-out: % activity
[6] = dose-dependent study, 0.390625 uM, individual values
[7] = dose-dependent study, 0.390625 uM, individual values, read-out: % activity
[8] = dose-dependent study, 0.78125 uM, individual values
[9] = dose-dependent study, 0.78125 uM, individual values, read-out: % activity
[10] = dose-dependent study, 1.5625 uM, individual values
[11] = dose-dependent study, 1.5625 uM, individual values, read-out: % activity
[12] = dose-dependent study, 3.125 uM, individual values
[13] = dose-dependent study, 3.125 uM, individual values, read-out: % activity
[14] = dose-dependent study, 6.25 uM, individual values, read-out: % activity
[15] = dose-dependent study, 12.5 uM, individual values
[16] = dose-dependent study, 12.5 uM, individual values, read-out: % activity
[17] = dose-dependent study, 25 uM, individual values
[18] = dose-dependent study, 50 uM, individual values
[19] = dose-dependent study, 100 uM, individual values
[20] = dose-dependent study, 100 uM, individual values, read-out: % activity
[21] = dose-dependent study, 6.25 uM, individual values
[22] = read-out: IC50 for SARS-CoV-2 3CL protease

| Compound | percent enzymatic activity, individual values (50 µM drug) | percent enzymatic activity, AVG (50 µM drug) [%] | % activity [2] | % activity [4] | % activity [6] | % activity [8] | % activity [10] | % activity [12] | % activity [15] | % activity [17] | % activity [18] | % activity [19] | inhibitory effect towards 3CLpro enzymatic activity (in words) | further results |
| --- | --- | --- | --- | --- | --- | --- | --- | --- | --- | --- | --- | --- | --- | --- |
| CC(C)(C)NC(=O)N[C@H](C(=O)N1C[C@H]2[C@@H]([C@H]1C(=O)NC(CC1CCC1)C(=O)C(N)=O)C2(C)C)C(C)(C)C (stereo partly shown) [Boceprevir] | 54.8875% and 56.5635% and 59.0774% | 56.8428 | 78.9417% and 76.1445% | 74.7459% | 72.4149% | 70.5501% and 71.9487% | 78.9417% and 72.4149% | 84.5361% | 70.0839% and 64.9557% | 57.4965% and 56.0979% | 41.6457% and 41.1795% | 29.5245% and 31.8555% | partial inhibitory effect | % activity [1]: 71.4825%; activity at 0.048828 µM [1]: 72.9%; activity at 0.097656 µM [3]: 75.2%; activity at 0.195313 µM [5]: 73.3%; activity at 0.390625 µM [7]: 77.1%; activity at 0.78125 µM [9]: 71%; activity at 1.5625 µM [11]: 74.3%; activity at 3.125 µM [13]: 73.3%; activity at 6.25 µM [14]: 73.8%; activity at 12.5 µM [16]: 61.2%; activity at 25 µM [17]: 51.9%; activity at 50 µM [18]: 37.4%; activity at 100 µM [20]: 26.7%; inhibition at 50 µM (50 µM drug): 45% |
| Cc1cccc(C)c1OCC(=O)N[C@@H](Cc1ccccc1)[C@@H](O)C[C@H](Cc1ccccc1)NC(=O)[C@H](C(C)C)N1CCCNC1=O [Lopinavir] | 75.576% and 76.4977% and 84.3318% | 78.8018 | – | – | – | – | – | – | – | – | – | – | did not exhibit any 3CLpro inhibitory activity | – |
| COC(=O)N[C@H](C(=O)N[C@@H](Cc1ccccc1)[C@@H](O)CN(Cc1ccc(-c2ccccn2)cc1)NC(=O)[C@@H](NC(=O)OC)C(C)(C)C)C(C)(C)C [Atazanavir] | 84.3318% and 88.0184% and 91.2442% | 87.8648 | – | – | – | – | – | – | – | – | – | – | – | – |
| CCCCCOc1ccc(-c2cc(-c3ccc(C(=O)N[C@H]4C[C@@H](O)[C@@H](O)NC(=O)[C@@H]5[C@@H](O)[C@@H](C)CN5C(=O)[C@H]([C@H](O)CC(N)=O)NC(=O)[C@H]([C@H](O)[C@@H](O)c5ccc(O)c(OS(=O)(=O)O)c5)NC(=O)[C@@H]5C[C@@H](O)CN5C(=O)[C@H]([C@@H](C)O)NC4=O)cc3)no2)cc1 [Micafungin] (X1-[Orn(4R-OH,5R-OH)]T[Hyp][hTyr(3S-OH,4S-OH,3'-OSO3H)][Gln(3R-OH)][Pro(3S-OH,4S-Me)]; lactam 1-C) | 37.5856% and 41.7364% and 49.3462% | 42.8894 | 93.428% and 107.627% | 93.921% and 112.575% | 94.414% and 111.957% | 110.101% | 99.8373% and 115.049% | 103.781% and 119.998% | 103.915% | 86.0326% and 95.2558% | 43.6326% and 50.0419% and 67.4213% | 20.9535% and 30.3087% | partial inhibitory effect | activity at 0.097656 µM [3]: 103%; activity at 0.195313 µM [5]: 95.4%; activity at 0.390625 µM [7]: 94.9%; activity at 0.78125 µM [9]: 101%; activity at 1.5625 µM [11]: 101%; activity at 3.125 µM [13]: 105%; % activity [21]: 110.101%; activity at 6.25 µM [14]: 105%; activity at 12.5 µM [16]: 92.9%; activity at 25 µM [17]: 79.6%; activity at 100 µM [20]: 19%; IC50 [22]: 47.6 µM; inhibition at 50 µM (50 µM drug): 57%; inhibition at 100 µM (100 µM drug): ~80% |
| CC(C)c1nc(CN(C)C(=O)N[C@H](C(=O)N[C@@H](Cc2ccccc2)C[C@H](O)[C@H](Cc2ccccc2)NC(=O)OCc2cncs2)C(C)C)cs1 [Ritonavir] | 82.0276% and 87.5576% and 91.2442% | 86.9432 | – | – | – | – | – | – | – | – | – | – | did not exhibit any 3CLpro inhibitory activity | – |
| Cc1cnc(C(=O)N[C@H]2CCCCC/C=C\[C@@H]3C[C@@]3(C(=O)NS(=O)(=O)C3CC3)NC(=O)[C@@H]3C[C@@H](Oc4nc5ccccc5c5ccccc45)CN3C2=O)cn1 [Paritaprevir] | 25.5475% and 31.3869% and 37.2263% | 31.3869 | 101.809% and 115.049% | 132.87% and 115.668% | 114.628% and 102.678% | 108.219% and 103.297% | 121.853% | 108.712% and 136.698% | 103.781% and 112.575% | 89.4838% and 96.4929% | 58.9163% and 64.3286% | 16.5163% and 15.0372% and 1.856% | partial inhibitory effect | activity at 0.097656 µM [3]: 101%; activity at 0.390625 µM [7]: 113%; activity at 0.78125 µM [9]: 108%; activity at 1.5625 µM [11]: 114%; % activity [21]: 112.163% and 121.853%; activity at 6.25 µM [14]: 112%; activity at 12.5 µM [16]: 102%; activity at 25 µM [17]: 91%; activity at 50 µM [18]: 61.4%; IC50 [22]: 73.4 µM; inhibition at 50 µM (50 µM drug): 70%; inhibition at 100 µM (100 µM drug): ~80% |
| Nc1nc(NC2CC2)c2ncn([C@H]3C=C[C@@H](CO)C3)c2n1 [Abacavir] | 85.8927% and 88.8256% and 90.5015% (2×) | 88.4066 | – | – | – | – | – | – | – | – | – | – | – | – |
| CC(C)(C)[C@@H]1NC(=O)O[C@@H]2CCC[C@H]2OC/C=C/C(F)(F)c2nc3ccccc3nc2O[C@@H]2C[C@@H](C(=O)N[C@]3(C(=O)NS(=O)(=O)C4(C)CC4)C[C@H]3C(F)F)N(C2)C1=O [Glecaprevir] | 92.7616% and 89.3077% and 94.7353% | 92.2682 | – | – | – | – | – | – | – | – | – | – | – | – |
| CCN(CC)CCCC(C)Nc1ccnc2cc(Cl)ccc12 (stereo not shown) [Chloroquine] | – | 100.272 | – | – | – | – | – | – | – | – | – | – | – | percent enzymatic activity, individual values (50 µM drug, listed as Chloroquine Phosphate): 103.986% and 93.4637% and 103.367% |
| CCN(CCO)CCCC(C)Nc1ccnc2cc(Cl)ccc12 (stereo not shown) [Hydroxychloroquine] | – | 87.663 | – | – | – | – | – | – | – | – | – | – | – | percent enzymatic activity, individual values (50 µM drug, listed as Hydrochloroquine): 83.3868% and 88.8143% and 90.788% |
| COC(=O)N[C@H](C(=O)N1CCC[C@H]1C(=O)Nc1ccc([C@@H]2CC[C@@H](c3ccc(NC(=O)[C@@H]4CCCN4C(=O)[C@@H](NC(=O)OC)C(C)C)cc3)N2c2ccc(C(C)(C)C)cc2)cc1)C(C)C [Ombitasvir] | 28.8321% and 35.4015% and 42.7007% | 35.6448 | 102.678% and 100.823% | 97.7299% and 97.8652% | 102.06% and 103.288% | 107.008% and 95.4001% | 102.06% and 100.823% | 111.957% and 103.781% | 107.627% and 104.767% | 102.302% and 73.6067% and 103.288% | 98.3582% and 67.4213% and 91.9489% | 61.2358% and 60.8884% | partial inhibitory effect | IC50 (IC50 for SARS-CoV-2 3CL protease): 75.5 µM; activity at 0.097656 µM [2]: 106%; activity at 0.195313 µM [4]: 106%; activity at 0.390625 µM [6]: 112%; activity at 0.78125 µM [8]: 113%; activity at 1.5625 µM [10]: 111%; activity at 3.125 µM [12]: 113%; % activity [21]: 105.153% and 107.726%; activity at 6.25 µM [21]: 115%; activity at 12.5 µM [15]: 112%; activity at 100 µM [19]: 64.3%; inhibition at 50 µM: 65%; inhibition at 100 µM: 50% |
